Reference: the supplement of paper PMC10307832

Tests used:
Experiment in all cases: relative viability (nuclei count vs DMSO), 5 days (fraction); higher = more cells survive
[1] = system: NCI-H2347
Outline: (§1)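 Lung cancer cell lines in 1536-well plates were dosed by pin tool the day after seeding, either with one drug alone or with a fixed anchor-drug dose plus five library-drug doses (not always all listed) in √10 steps. After 5 days, cells were fixed and their nuclei stained in one step (final 0.05% Triton X-100, 1% formaldehyde, 1 ug/ml Hoechst), then counted on 4× images. Relative viability is the nuclei count in treated wells divided by that in vehicle wells. Values are medians of duplicate plates.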

[2] = system: NCI-H1993
Outline: as §1

[3] = system: HCC-78
Outline: as §1

[4] = system: NCI-H2087
Outline: as §1

[5] = system: NCI-H2085
Outline: as §1

[6] = system: NCI-H727
Outline: as §1

[7] = system: LXF-289
Outline: as §1

[8] = system: NCI-H1915
Outline: as §1

[9] = system: BEN
Outline: as §1

[10] = system: HCC-366
Outline: as §1

[11] = system: NCI-H1666
Outline: as §1

[12] = system: PC-14
Outline: as §1

[13] = system: EBC-1
Outline: as §1

[14] = system: NCI-H2228
Outline: as §1

[15] = system: EMC-BAC-2
Outline: as §1

[16] = system: RERF-LC-KJ
Outline: as §1

[17] = system: NCI-H358
Outline: as §1

[18] = system: NCI-H650
Outline: as §1

[19] = system: NCI-H1650
Outline: as §1

[20] = system: NCI-H2170
Outline: as §1

[21] = system: NCI-H1563
Outline: as §1

[22] = system: LC-2-ad
Outline: as §1

[23] = system: NCI-H1944
Outline: as §1

## Cc1cn(-c2cc(NC(=O)c3ccc(C)c(Nc4nccc(-c5cccnc5)n4)c3)cc(C(F)(F)F)c2)cn1 [Nilotinib] + CS(=O)(=O)CCNCc1ccc(-c2ccc3ncnc(Nc4ccc(OCc5cccc(F)c5)c(Cl)c4)c3c2)o1 [Lapatinib] (partner 2 µM)
[1]; first compound 0.001 µM
  relative viability: 0.821
[1]; first compound 0.003162 µM
  relative viability: 1.01
[1]; first compound 0.01 µM
  relative viability: 0.823
[1]; first compound 0.03162 µM
  relative viability: 0.817
[1]; first compound 0.1 µM
  relative viability: 0.6
[2]; first compound 0.001 µM
  relative viability: 0.797
[2]; first compound 0.003162 µM
  relative viability: 0.863
[2]; first compound 0.01 µM
  relative viability: 0.77
[2]; first compound 0.03162 µM
  relative viability: 0.874
[2]; first compound 0.1 µM
  relative viability: 0.651
[3]; first compound 0.001 µM
  relative viability: 0.889
[3]; first compound 0.003162 µM
  relative viability: 0.718
[3]; first compound 0.01 µM
  relative viability: 0.779
[3]; first compound 0.03162 µM
  relative viability: 0.491
[3]; first compound 0.1 µM
  relative viability: 0.571
[4]; first compound 0.001 µM
  relative viability: 0.62
[4]; first compound 0.003162 µM
  relative viability: 1.21
[4]; first compound 0.01 µM
  relative viability: 1.17
[4]; first compound 0.03162 µM
  relative viability: 0.686
[4]; first compound 0.1 µM
  relative viability: 0.289
[5]; first compound 0.001 µM
  relative viability: 0.822
[5]; first compound 0.003162 µM
  relative viability: 0.817
[5]; first compound 0.01 µM
  relative viability: 0.748
[5]; first compound 0.03162 µM
  relative viability: 0.66
[5]; first compound 0.1 µM
  relative viability: 0.599
[6]; first compound 0.001 µM
  relative viability: 0.858
[6]; first compound 0.01 µM
  relative viability: 0.985
[6]; first compound 0.03162 µM
  relative viability: 0.591
[6]; first compound 0.1 µM
  relative viability: 0.368
[7]; first compound 0.001 µM
  relative viability: 0.839
[7]; first compound 0.003162 µM
  relative viability: 1.05
[7]; first compound 0.01 µM
  relative viability: 0.927
[7]; first compound 0.03162 µM
  relative viability: 0.941
[7]; first compound 0.1 µM
  relative viability: 0.63
[8]; first compound 0.001 µM
  relative viability: 0.986
[8]; first compound 0.003162 µM
  relative viability: 1.13
[8]; first compound 0.01 µM
  relative viability: 1.22
[8]; first compound 0.03162 µM
  relative viability: 0.98
[8]; first compound 0.1 µM
  relative viability: 0.517
[9]; first compound 0.001 µM
  relative viability: 0.759
[9]; first compound 0.003162 µM
  relative viability: 0.74
[9]; first compound 0.01 µM
  relative viability: 0.757
[9]; first compound 0.03162 µM
  relative viability: 0.518
[9]; first compound 0.1 µM
  relative viability: 0.508
[10]; first compound 0.001 µM
  relative viability: 0.907
[10]; first compound 0.003162 µM
  relative viability: 1.38
[10]; first compound 0.01 µM
  relative viability: 1.29
[10]; first compound 0.03162 µM
  relative viability: 0.984
[10]; first compound 0.1 µM
  relative viability: 0.191
[11]; first compound 0.001 µM
  relative viability: 0.772
[11]; first compound 0.003162 µM
  relative viability: 0.901
[11]; first compound 0.01 µM
  relative viability: 0.461
[11]; first compound 0.03162 µM
  relative viability: 0.655
[11]; first compound 0.1 µM
  relative viability: 0.641
[12]; first compound 0.001 µM
  relative viability: 0.328
[12]; first compound 0.003162 µM
  relative viability: 0.422
[12]; first compound 0.01 µM
  relative viability: 0.367
[12]; first compound 0.03162 µM
  relative viability: 0.318
[12]; first compound 0.1 µM
  relative viability: 0.277
[13]; first compound 0.001 µM
  relative viability: 0.208
[13]; first compound 0.003162 µM
  relative viability: 0.187
[13]; first compound 0.01 µM
  relative viability: 0.179
[13]; first compound 0.03162 µM
  relative viability: 0.186
[13]; first compound 0.1 µM
  relative viability: 0.162
[14]; first compound 0.001 µM
  relative viability: 1.03
[14]; first compound 0.003162 µM
  relative viability: 1.25
[14]; first compound 0.01 µM
  relative viability: 1.13
[14]; first compound 0.03162 µM
  relative viability: 1.01
[14]; first compound 0.1 µM
  relative viability: 0.285
[15]; first compound 0.001 µM
  relative viability: 0.834
[15]; first compound 0.003162 µM
  relative viability: 0.952
[15]; first compound 0.01 µM
  relative viability: 0.924
[15]; first compound 0.03162 µM
  relative viability: 0.784
[15]; first compound 0.1 µM
  relative viability: 0.606
[16]; first compound 0.001 µM
  relative viability: 0.874
[16]; first compound 0.003162 µM
  relative viability: 0.986
[16]; first compound 0.01 µM
  relative viability: 0.977
[16]; first compound 0.03162 µM
  relative viability: 0.882
[16]; first compound 0.1 µM
  relative viability: 0.888
[17]; first compound 0.001 µM
  relative viability: 0.442
[17]; first compound 0.003162 µM
  relative viability: 0.529
[17]; first compound 0.01 µM
  relative viability: 0.539
[17]; first compound 0.03162 µM
  relative viability: 0.438
[17]; first compound 0.1 µM
  relative viability: 0.325
[18]; first compound 0.001 µM
  relative viability: 0.897
[18]; first compound 0.003162 µM
  relative viability: 0.65
[18]; first compound 0.01 µM
  relative viability: 0.918
[18]; first compound 0.03162 µM
  relative viability: 0.851
[18]; first compound 0.1 µM
  relative viability: 0.682
[19]; first compound 0.001 µM
  relative viability: 0.851
[19]; first compound 0.003162 µM
  relative viability: 0.931
[19]; first compound 0.01 µM
  relative viability: 0.917
[19]; first compound 0.03162 µM
  relative viability: 0.668
[19]; first compound 0.1 µM
  relative viability: 0.424
[20]; first compound 0.001 µM
  relative viability: 0.26
[20]; first compound 0.003162 µM
  relative viability: 0.285
[20]; first compound 0.01 µM
  relative viability: 0.272
[20]; first compound 0.03162 µM
  relative viability: 0.28
[20]; first compound 0.1 µM
  relative viability: 0.268
[21]; first compound 0.001 µM
  relative viability: 0.961
[21]; first compound 0.003162 µM
  relative viability: 0.916
[21]; first compound 0.01 µM
  relative viability: 0.874
[21]; first compound 0.03162 µM
  relative viability: 0.873
[21]; first compound 0.1 µM
  relative viability: 0.596
[22]; first compound 0.001 µM
  relative viability: 0.901
[22]; first compound 0.003162 µM
  relative viability: 1.29
[22]; first compound 0.01 µM
  relative viability: 1.05
[22]; first compound 0.03162 µM
  relative viability: 0.894
[22]; first compound 0.1 µM
  relative viability: 0.293
[23]; first compound 0.001 µM
  relative viability: 0.894
[23]; first compound 0.003162 µM
  relative viability: 0.996
[23]; first compound 0.01 µM
  relative viability: 0.742
[23]; first compound 0.03162 µM
  relative viability: 1.03
[23]; first compound 0.1 µM
  relative viability: 0.389
